# Source: US6008196A, “Perfluoroalkyl ketone inhibitors of elastase and processes for making the same” (Hoechst Marion Roussel, Inc., priority 1996, dated 1999)
# Target: T1, Human Neutrophil Elastase (Homo sapiens, UniProt P08246)
# T1 construct: Enzyme is purified from human sputum, although recently it has become commercially available; from tissue; host or cells: human sputum
# T1 sequence (P08246 30-247 limits assumed): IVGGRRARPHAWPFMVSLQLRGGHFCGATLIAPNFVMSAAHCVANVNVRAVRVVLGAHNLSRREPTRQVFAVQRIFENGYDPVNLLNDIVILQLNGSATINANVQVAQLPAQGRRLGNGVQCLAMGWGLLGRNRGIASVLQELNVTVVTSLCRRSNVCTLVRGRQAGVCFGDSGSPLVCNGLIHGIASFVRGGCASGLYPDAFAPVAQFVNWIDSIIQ
# Test: Human neutrophil elastase assayed in vitro with N-MeOSuc-Ala-Ala-Pro-Val-p-nitroanilide as substrate
# Type: biochemical
# Details: enzyme purified from human sputum
# Description: Human neutrophil elastase is assayed in vitro using N-MeOSuc-Ala-Ala-Pro-Val-p-nitroanilide, available commercially, as substrate. […] Enzyme is purified from human sputum, although recently it has become commercially available. Kinetic characterization of immediate inhibitors is by means of the Dixon plot, whereas the characterization of slow- and/or tight-binding inhibitors used data analysis techniques reviewed by Williams and Morrison. The synthesis and analytical use of a highly sensitive and convenient substrate of elastase is described in J. Bieth, B. Spiess and C. […] For the purposes of this table, MCBz refers to 4-(4-morpholinylcarbonyl)benzoyl and Pyr refers to 3-(3-pyridyl)propanoyl.
row,Structure (SMILES),Ki [nM]
1,"CC(C)C(NC(=O)[C@@H]1CCCN1C(=O)[C@@H](NC(=O)OC(C)(C)C)C(C)C)C(=O)C(F)(F)C(F)(F)C(F)(F)C(F)(F)F (stereo partly drawn) [Boc--Val--Pro--Val--CF2 CF2 CF2 CF3, N-[(1,1-dimethylethoxy)carbonyl]-L-valyl-N'-[3,3,4,4,5,5,6,6,6-nonafluoro-1-(1-methylethyl)-2-oxohexyl]-L-prolinamide]",590
2,"CC(C)C(NC(=O)[C@@H]1CCCN1C(=O)[C@@H](NC(=O)OC(C)(C)C)C(C)C)C(=O)C(F)(F)C(F)(F)C(F)(F)F (stereo partly drawn) [Boc--Val--Pro--Val--CF2 CF2 CF3, N-[(1,1-dimethylethoxy)carbonyl]-L-valyl-N'-[3,3,4,4,5,5,5-heptafluoro-1-(1-methylethyl)-2-oxopentyl]-L-prolinamide]",490
3,"CC(C)C(NC(=O)[C@@H]1CCCN1C(=O)[C@@H](NC(=O)c1ccc(C(=O)N2CCOCC2)cc1)C(C)C)C(=O)C(F)(F)C(F)(F)C(F)(F)F (stereo partly drawn) [MCBz--Val--Pro--Val--CF2 CF2 CF3, N-[4-(4-morpholinylcarbonyl)benzoyl]-L-valyl-N'-[3,3,4,4,5,5,5-heptafluoro-1-(1-methylethyl)-2-oxopentyl]-L-prolinamide]",18
